Experimental data: patent publication US7511065B2, “Mixed lineage kinase modulators” (Eli Lilly and Company, priority 2002, dated 2009)

The compounds below were run against T1, MLK-7 (Homo sapiens, UniProt Q9NYL2) (assay: In vitro assay of purified MLK-7 kinase activity (33P transfer from ATP to myelin basic protein)). Details: recombinant GST-tagged MLK-7 at 1 nm, 30 uM ATP, 5 uM MBP substrate, 2 hours room temperature; read-out: MLK7 IC50.
T1 construct: GST; His tag; made in house; host or cells: Sf9 insect cells (baculovirus, pVL1392)
T1 sequence (Q9NYL2 1-455 isoform Q9NYL2-2): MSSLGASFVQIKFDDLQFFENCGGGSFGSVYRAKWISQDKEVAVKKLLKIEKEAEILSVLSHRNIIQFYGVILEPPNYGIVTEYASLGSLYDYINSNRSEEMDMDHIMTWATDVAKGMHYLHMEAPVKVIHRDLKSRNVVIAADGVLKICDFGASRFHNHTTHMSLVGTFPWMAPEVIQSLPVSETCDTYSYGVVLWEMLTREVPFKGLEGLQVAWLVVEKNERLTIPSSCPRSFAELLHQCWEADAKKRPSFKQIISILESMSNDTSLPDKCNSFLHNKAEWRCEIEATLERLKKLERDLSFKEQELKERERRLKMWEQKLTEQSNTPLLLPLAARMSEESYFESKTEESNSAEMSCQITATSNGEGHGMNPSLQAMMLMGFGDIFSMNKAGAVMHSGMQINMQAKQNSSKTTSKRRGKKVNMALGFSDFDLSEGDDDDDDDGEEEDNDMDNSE
Format: biochemical
In short: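 GST/His-tagged MLK-7 from Sf9 (baculovirus), 1 nM, with 5 uM MBP, 30 uM ATP plus 33P, 5 mM MgCl2, 2 mM DTT, 4% DMSO in 44 mM HEPES pH 7.4; 2 h at room temperature, stopped with phosphoric acid. Filter-bound 33P counted; IC50 for reduced phosphate transfer, Ki via Cheng-Prusoff.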

Structure (SMILES)	IC50 [nM]
COc1ccc(-c2ccc3c(-c4c(-c5ccccn5)nn5c4CCC5)ccnc3c2)nn1.O=C(O)C(F)F [Example 84, 7-(6-Methoxypyridazin-3-yl)-4-(2-Pyridin-2-yl-5,6-dihydro-4H-pyrrolo[1,2-b]pyrazol-3-yl)quinoline Difluoroacetic Acid]	≤ 100
O=C(O)C(F)F.c1ccc(-c2nn3c(c2-c2ccnc4cc(-c5ncccn5)ccc24)CCC3)nc1 [Example 85, 4-(2-Pyridin-2-yl-5,6-dihydro-4H-pyrrolo[1,2-b]pyrazol-3-yl)-7-pyrimidin-2-yl-quinoline Difluoroacetic Acid]	≤ 1000
NC(=O)CCCc1ccc(-c2ccc3c(-c4c(-c5ccccn5)nn5c4CCC5)ccnc3c2)cc1 [Example 86, 4-{4-[4-(2-Pyridin-2-yl-5,6-dihydro-4H-pyrrolo[1,2-b]pyrazol-3-yl)quinolin-7-yl]phenyl}butyramide Trifluoroacetic Acid]	≤ 100
O=C(O)C(F)F.c1ccc(-c2nn3c(c2-c2ccnc4cc(-c5nc6ccccc6[nH]5)ccc24)CCC3)nc1 [Example 87, 7-(1H-Benzoimdazol-2-yl)-4-(2-pyridin-2-yl-5,6-dihydro-4H-pyrrolo[1,2-b]pyrazol-3-yl)quinoline Difluoroacetic Acid]	≤ 100
O=C(O)C(F)F.c1ccc(-c2nn3c(c2-c2ccnc4cc(-c5cncnc5)ccc24)CCC3)nc1 [Example 88, 4-(2-pyridin-2-yl-5,6-dihydro-4H-pyrrolo[1,2-b]pyrazol-3-yl)-7-pyrimidin-5-yl-quinoline Difluoroacetic Acid]	≤ 1000
Nc1ccc(-c2ccc3c(-c4c(-c5ccccn5)nn5c4CCC5)ccnc3c2)cc1Cl [Example 90, 2-Chloro-4-[4-(2-pyridin-2-yl-5,6-dihydro-4H-pyrrolo[1,2-b]pyrazol-3-yl)-quinolin-7-yl]-phenylamine Ditrifluoroacetic Acid]	≤ 100
Oc1c(F)cc(-c2ccc3c(-c4c(-c5ccccn5)nn5c4CCC5)ccnc3c2)cc1Cl [Example 91, 2-Chloro-6-fluoro-4-[4-(2-pyridin-2-yl-5,6-dihydro-4H-pyrrolo[1,2-b]pyrazol-3-yl)-quinolin-7-yl]-phenol Trifluoroacetic Acid]	≤ 100
NS(=O)(=O)c1ccc(-c2ccc3c(-c4c(-c5ccccn5)nn5c4CCC5)ccnc3c2)s1 [Example 92, 5-[4-(2-Pyridin-2-yl-5,6-dihydro-4H-pyrrolo[1,2-b]pyrazol-3-yl)-quinolin-7-yl]-thiophene-2-sulfonic acid amide Trifluoroacetic Acid]	≤ 100
Oc1cc(-c2ccc3c(-c4c(-c5ccccn5)nn5c4CCC5)ccnc3c2)cc(F)c1F [Example 93, 2,3-Difluoro-5-[4-(2-pyridin-2-yl-5,6-dihydro-4H-pyrrolo[1,2-b]pyrazol-3-yl)-quinolin-7-yl]-phenol Trifluoroacetic Acid]	≤ 100
Nc1nc2ccc(-c3ccc4c(-c5c(-c6ccccn6)nn6c5CCC6)ccnc4c3)cc2s1 [Example 94, 6-[4-(2-Pyridin-2-yl-5,6-dihydro-4H-pyrrolo[1,2-b]pyrazol-3-yl)-quinolin-7-yl]-benzothiazol-2-yl amine Tris trifluoroacetic Acid]	≤ 100
NS(=O)(=O)c1ccc(-c2ccc3c(-c4c(-c5ccccn5)nn5c4CCC5)ccnc3c2)cc1 [Example 95, 4-[4-(2-Pyridin-2-yl-5,6-dihydro-4H-pyrrolo[1,2-b]pyrazol-3-yl)-quinolin-7-yl]-benzenesulfonamide]	≤ 100
NS(=O)(=O)c1cccc(-c2ccc3c(-c4c(-c5ccccn5)nn5c4CCC5)ccnc3c2)c1 [Example 96, 3-[4-(2-Pyridin-2-yl-5,6-dihydro-4H-pyrrolo[1,2-b]pyrazol-3-yl)-quinolin-7-yl]-benzenesulfonamide]	≤ 100
NS(=O)(=O)c1ccccc1-c1ccc2c(-c3c(-c4ccccn4)nn4c3CCC4)ccnc2c1 [Example 97, 2-[4-(2-Pyridin-2-yl-5,6-dihydro-4H-pyrrolo[1,2-b]pyrazol-3-yl)-quinolin-7-yl]-benzenesulfonamide]	≤ 1000

Next, values leading:

IC50 [nM]	Structure (SMILES)
≤ 1000	c1ccc(-c2nn3c(c2-c2ccnc4cc(-n5ccnc5)ccc24)CCC3)nc1 [Example 98, 7-Imidazol-1-yl-4-(2-pyridin-2-yl-5,6-dihydro-4H-pyrrolo[1,2-b]pyrazol-3-yl)quinoline Ditrifluoroacetic Acid]
≤ 1000	c1ccc(-c2nn3c(c2-c2ccnc4cc(-n5cncn5)ccc24)CCC3)nc1 [Example 99, 4-(2-Pyridin-2-yl-5,6-dihydro-4H-pyrrolo[1,2-b]pyrazol-3-yl)-7-[1,2,4]triazol-1-yl-quinoline ditrifluoroacetic Acid]
≤ 100	c1ccc(-c2nn3c(c2-c2ccnc4cc(-n5cccn5)ccc24)CCC3)nc1 [Example 100, 7-Pyrazol-1-yl-4-(2-pyridin-2-yl-5,6-dihydro-4H-pyrrolo[1,2-b]pyrazol-3-yl)quinoline Trifluoroacetic Acid]
≤ 1000	c1ccc(-c2nn3c(c2-c2ccnc4cc(-n5ccnn5)ccc24)CCC3)nc1 [Example 101, 4-(2-pyridin-2-yl-5,6-dihydro-4H-pyrrolo[1,2-b]pyrazol-3-yl-)-7-[1,2,3]triazol-1-yl-quinoline ditrifluoroacetic Acid]
≤ 10000	CC(C)(C)OC(=O)N1CCN(c2ccc3c(-c4c(-c5ccccn5)nn5c4CCC5)ccnc3c2)CC1 [Example 102, 4-[4-(2-Pyridin-2-yl-5,6-dihydro-4H-pyrrolo[1,2-b]pyrazol-3-yl)-quinolin-7-yl]-piperazine-1-carboxylic Acid tert-Butyl Ester]
≤ 1000	c1ccc(-c2nn3c(c2-c2ccnc4cc(N5CCCCC5)ccc24)CCC3)nc1 [Example 103, 7-Piperidin-1-yl-4-(2-pyridin-2-yl-5,6-dihydro-4H-pyrrolo[1,2-b]pyrazol-3-yl)-quinoline]
≤ 10000	O=S1(=O)CCN(c2ccc3c(-c4c(-c5ccccn5)nn5c4CCC5)ccnc3c2)CC1 [Example 104, 7-(1,1-Dioxo-1λ^6-thiomorph-olin-4-yl)-4-(2-pyridin-2-yl-5,6-dihydro-4H-pyrrolo[1,2-b]pyrazol-3-yl)-quinoline]
≤ 100	COC(=O)CCc1ccc(-c2ccc3c(-c4c(-c5ccccn5)nn5c4CCC5)ccnc3c2)cc1 [Example 106, 3-{4-[4-(2-pyridin-2-yl-5,6-dihydro-4H-pyrrolo[1,2-b]pyrazol-3-yl-)quinolin-7-yl]phenyl}propionic Acid Methyl Ester]
≤ 100	NC(=O)CCc1ccc(-c2ccc3c(-c4c(-c5ccccn5)nn5c4CCC5)ccnc3c2)cc1 [Example 107, 3-{4-[4-(2-Pyridin-2-yl-5,6-dihydro-4H-pyrrolo[1,2-b]pyrazol-3-yl)quinolin-7-yl]phenyl}propionamide]
≤ 100	CN(C)CCOc1ccc(-c2ccc3c(-c4c(-c5ccccn5)nn5c4CCC5)ccnc3c2)cc1 [Example 108, Dimethyl-(2-{4-[4-(2-Pyridin-2-yl-5,6-dihydro-4H-pyrrolo[1,2-b]pyrazol-3-yl)quinolin-7-yl]phenoxy}ethyl)amine Ditrifluoroacetic Acid]
≤ 100	c1ccc(-c2nn3c(c2-c2ccnc4cc(-c5ccc(OCCN6CCOCC6)cc5)ccc24)CCC3)nc1 [Example 109, 7-[4-(2-Morpholin-4-yl-ethoxy)phenyl]-4-(2-Pyridin-2-yl-5,6-dihydro-4H-pyrrolo[1,2-b]pyrazol-3-yl)quinoline Ditrifluoroacetic Acid]
